Assay results as given in patent publication US9737502B2, “Calebin A for hepatic steatosis” (SAMI LABS LIMITED, priority 2011, dated 2017).
Marks after values point to notes of the source that are not given here.

How the values were obtained:
TNF-α [1] = test: Intracellular TNF-α in LPS-stimulated murine neutrophils (flow cytometry); assay type: cell-based; conditions: for Expression of TNF-α Mean ± S.E: LPS Control 2.62 ± 0.01
Protocol: The present inventors also adduce extra evidence to support the ability of Calebin A to suppress intracellular TNF and extracellular IL-1β in murine neutrophil systems (Table II, Table III). Neutrophils are isolated by histopaque gradient method tested for their ability to produce in vitro TNF-α following stimulation with Lipopolysaccharide (LPS). The cells were incubated with phycoerythrin (PE)-labeled anti-mouse TNF-α in the dark, and after being washed with sterile PBS, samples were resuspended in PBS (pH 7.4) and acquired directly on the flow cytometer (BDLSR; Becton Dickinson). A fluorescence trigger was set on the PE […] parameter of the gated neutrophil populations (10,000 events). Rolipram at 100 μg/ml was used as standard inhibitor of TNF-α in this study. Fluorescence compensation, data analysis, and data presentation were performed using Cell Quest Pro software (Becton Dickinson).

IL-1 beta = test: Serum IL-1 beta in LPS-injected mice after 6 days oral treatment (ELISA); assay type: in vivo, Swiss albino mice; conditions: graded doses, then LPS 1 mg/kg i.v., serum 90 min after LPS
Protocol: The present inventors also adduce study data on the ability of Calebin A to reduce expression of Extracellular TNF-α, IL-1 beta [FIG. 6] and IL-6 [FIG. 7] in serum from treated mice (in-vivo models). Swiss albino male mice aged 6-8 weeks were maintained at 22±2° C. under 12/12 h light dark cycle. Mice received oral treatment of test drugs at graded doses (w/v) for 6 days, followed by intravenous injection of 1 mg/kg of LPS according to the method described by Brieva A, Guerrero A, Alonso-Lebrero J L and Pivel J P. 2001. Immunoferon, a glycoconjugate of natural origin, inhibits LPS-induced TNF-α production and inflammatory responses. International Immunopharmacology 1, 1979-1987. Six mice were employed in each group and experiments were performed in triplicates. TNF-α, IL-1 beta and IL-6 production was evaluated by a commercial ELISA kits (R&D Systems) in serum from treated mice, 90 min after LPS injection. Rolipram at 30 mg/kg was used as standard drug.

[2] = Serum biochemistry (TCHO, TG, HDL, GOT, GPT) in HFD-fed mice, 12 weeks; assay type: in vivo, C57BL/6J mice; conditions: for GPT: HFD 38.25 ± 8.92; for HDL: HFD 109.40 ± 1.34; for TG: HFD 151.00 ± 8.89; for TCHO: HFD 162.67 ± 15.89; for GOT: HFD 335.28 ± 18.80
Protocol: Food cups were replenished with fresh diet daily. […] Statistical analysis was done by Student's t test.
C57BL/6J mice fed with HFD for period of 12 weeks were evaluated for serum levels of GOT and GTP. Results indicated enhanced serum GOT and GTP (TABLE XI) when compared to the ND group.
Data were presented as the mean±SE (n=8 per group). […] ND: normal diet; HFD: high fat diet.

TNF-α [3] = test: Estimation of TNF-α in adipocyte supernatant by ELISA; assay type: cell-based; conditions: human adipocytes
Protocol: 3T3-L1 cells approximately 60×10^4 cells are seeded for 48-72 hrs to get 70-80% confluence. After 48 hrs 200 μl of AIM (Adipogenesis induction medium) freshly prepared is added. 72 hrs later 200 μl APM (Adipogenesis progression medium) with the test compounds in different concentrations is added to the wells. The cells are incubated for 48 hrs in a humidified atmosphere (37° C.) of 5% CO2 and 95% air. The supernatant is collected and stored for the estimation of leptin, adiponectin, IL-6 and TNF-α by ELISA. Cells are fixed by adding 100 μl of 10% formalin and ORO staining is done. OD is read at 492 nm in microplate reader. The results are expressed as IC50 values using Graphpad prism software.
The percentage of inhibition of adipogenesis is calculated as follows, % inhibition=C−T/[…] Where C-absorbance of Oil red 0 in differentiating/undifferentiated cells T-absorbance of Oil Red-O in sample treated differentiating/undifferentiated cells. The estimation of leptin, adiponectin, IL-6 and TNF-α is done according to user's manual from R&D Systems.

[4] = tested on: HFD induced hepatic steatosis; test: Liver histopathology and hepatic triglyceride in HFD-fed mice; assay type: in vivo, C57BL/6J mice; conditions: Calebin A 0.25% and 1% in HFD, dose dependant
Protocol: A portion of the livers in different groups were dissected and fixed in 10% buffered formalin for at least 24 hours, then dehydrated with a sequence of ethanol solutions and processed for embedding in paraffin. Sections of 5-6 μm in thickness were cut, deparaffinized, rehydrated, stained with haematoxylin & eosin (H&E) and subjected to pbotomicroscopic assessment. Liver histopathology was evaluated according to the NAFLD system outlined in Kleiner, D. E., Brunt, E. M., Van, N. M., Behling, C. et al., Design and validation of a histological scoring system for nonalcoholic fatty liver disease. Hepatology 2005, 41, 1313-1321. The score of hepatocellular ballooning was graded 0-2 based on the number of balloon cell per field at ×200 magnification (grading: 0=no balloon cell; 1=few balloon cells; 2=prominent balloon cells) in H&E stained sections. The number of infiltrating immune cells was counted at 200× magnification in five different areas. In the HFD group significant inflammatory degeneration, hepatocellular ballooning degeneration and triglyceride accumulation were seen. Quantitative analysis indicated elevated hepatic triglyceride levels as compared to the ND group. Administration of Calebin A at concentrations of 0.25% and 1% attenuated HFD induced triglyceride, hepatocellular ballooning degeneration and inflammatory infiltration in a dose dependant manner. Accordingly, in another most preferred embodiment, the present invention relates to a method of treating high fat diet (HFD) induced hepatic steatosis in mammals, said method comprising step of bringing into contact HFD affected hepatic cells marked by inflammatory infiltration, hepatocellular ballooning degeneration and high triglyceride levels with Calebin A derived from orally administering to said mammals effective concentrations of Calebin A to bring about the effect of attenuation of hepatic steatosis in a dose dependant manner. Alternatively, in another most preferred embodiment, the present invention also relates to Calebin A for treating high fat diet (HFD) induced hepatic steatosis in mammals.

COc1cc(/C=C/C(=O)COC(=O)/C=C/c2ccc(O)c(OC)c2)ccc1O [Calebin A]
% Activity (suppression of TNF-α expression) (TNF-α [1]; 0.5 μg/ml): 28.62%↓ | Expression of TNF-α Mean ± S.E (TNF-α [1]; 0.5 μg/ml): 1.87 ± 0.04 | % Activity (suppression of TNF-α expression) (TNF-α [1]; 1.0 μg/ml): 35.11%↓ | Expression of TNF-α Mean ± S.E (TNF-α [1]; 1.0 μg/ml): 1.70 ± 0.02 | % Activity (suppression of TNF-α expression) (TNF-α [1]; 2.0 μg/ml): 39.31%↓ | Expression of TNF-α Mean ± S.E (TNF-α [1]; 2.0 μg/ml): 1.59 ± 0.05 | expression of IL-1 beta in serum (IL-1 beta): effective in reducing | GPT ([2]; HFD + 0.25% Calebin A): 23.00 ± 2.92^c U/l | HDL ([2]; HFD + 0.25% Calebin A): 107.80 ± 2.05^a mg/dl | TG ([2]; HFD + 0.25% Calebin A): 121.25 ± 6.55^b mg/dl | TCHO ([2]; HFD + 0.25% Calebin A): 136.50 ± 7.51^c mg/dl | GOT ([2]; HFD + 0.25% Calebin A): 110.33 ± 2.52^b U/l | GPT ([2]; HFD + 1% Calebin A): 32.50 ± 3.00^a U/l | HDL ([2]; HFD + 1% Calebin A): 104.50 ± 8.80^a mg/dl | TG ([2]; HFD + 1% Calebin A): 89.75 ± 5.85^b mg/dl | TCHO ([2]; HFD + 1% Calebin A): 110.50 ± 17.97^a mg/dl | GOT ([2]; HFD + 1% Calebin A): 77.50 ± 11.12^c U/l | percentage inhibition of TNF-α (TNF-α [3]; 0.5 μg/ml): 36.03% | percentage inhibition of TNF-α (TNF-α [3]; 1.0 μg/ml): 40.81% | percentage inhibition of TNF-α (TNF-α [3]; 2.0 μg/ml): 45.47% | HFD induced hepatic triglyceride [4]: attenuated | inflammatory infiltration in liver ([4]; H&E): attenuated | hepatocellular ballooning degeneration ([4]; H&E, NAFLD scoring): attenuated
